# Where two headings read alike, the source gives them in different places.
# How the values were obtained:
# [1] = target: wt hSTING (Homo sapiens, UniProt Q86WV6); test: Standard 293T reporter cell-based assay (IRF-3 dependent firefly luciferase reporter)
# Experimental: Briefly, the day before testing cells were seeded onto 96-well white plates at density 250,000 cells per cm^2 in DMEM High glucose medium supplemented with 10% (v/v) heat inactivated fetal bovine albumin (FBS). The next day medium was removed, and cell were incubated for 7 h (37° C., 5% CO2) with serial dilution of compounds in medium. After incubation, Bright-Glo Luciferase Assay System reagent was added to cells and luminescence readout was performed on SPARK instrument (Tecan, Austria). EC50 values were determined using in software Prism (GraphPad, USA).
# [2] = system: Peripheral blood mononuclear cells (PBMC); test: PBMC assay: induction of cytokines INFα and INFγ; format: cell-based; settings: Homo sapiens, PBMCs, 16 h incubation, mean from three different PBMC donors
# [3] = Cytotoxic effect on PBMCs (CellTiter-Glo Luminescent Cell Viability Assay); format: cell-based; settings: human, 16 h incubation, mean from three different PBMC donors
# Experimental: Briefly, buffy coats were obtained from the Institute of Hematology and Blood Transfusion (Prague, Czech Republic). Informed written consent was signed by each volunteer. Isolation of PBMCs was performed on Ficoll density gradient centrifugation (Ficoll Paque Plus, GE Healthcare, USA) in SepMate tubes (SepMate PBMC Isolation Tubes, Stemcell Technologies, Canada). Obtained PBMCs were washed using PBS with 2 mM EDTA, and then seeded onto 96-well U-shape plates at density 500,000 cells per well in RPMI 1640 media with 10% (v/v) heat inactivated FBS. Serially diluted CDNs were added to cells and cells were incubated for 16 h (37° C., 5% CO2). After incubation, medium was collected to determine levels of INFα and INFγ using ProcartaPlex Assays and MAGPIX System (Merck, Germany) according to the manufacturer's instructions. Cytotoxic effect of CDNs on PBMCs was determined using CellTiter-Glo® Luminescent Cell Viability Assay (Promega Corporation, USA) according to manufacturer's instruction.
# [4] = read-out: Standard assay EC50, 293T reporter cells expressing wt hSTING, 7 h incubation, mean of three independent experiments in triplicates, SD <50%
# [5] = read-out: PBMC assay EC50 INF α
# [6] = read-out: PBMC assay EC50 INF γ
# Chain of wt hSTING (Q86WV6 whole entry H232R): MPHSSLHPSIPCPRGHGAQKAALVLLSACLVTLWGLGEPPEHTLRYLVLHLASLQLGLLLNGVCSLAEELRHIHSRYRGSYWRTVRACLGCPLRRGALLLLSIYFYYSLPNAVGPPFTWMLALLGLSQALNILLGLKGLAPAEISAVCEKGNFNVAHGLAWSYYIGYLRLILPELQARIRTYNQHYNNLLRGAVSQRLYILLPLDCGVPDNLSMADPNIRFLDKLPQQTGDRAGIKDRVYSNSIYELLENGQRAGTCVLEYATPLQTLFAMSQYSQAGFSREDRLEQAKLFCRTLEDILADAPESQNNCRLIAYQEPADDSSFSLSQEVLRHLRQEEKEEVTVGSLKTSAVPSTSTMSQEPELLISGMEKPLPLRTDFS
smiles,measurement,setting,value
"Nc1nc2c(ncn2[C@@H]2O[C@@H]3COP(=O)(O)O[C@H]4[C@@H](O)[C@H](n5cc(-c6ccc(-c7ccc8ccccc8c7)cc6)c6c(N)ncnc65)O[C@@H]4COP(=O)(O)O[C@@H]2[C@@H]3O)c(=O)[nH]1 [Compound 1g, 2-amino-9-((5R,7R,8R,12aR,14R,15R,15aS,16R)-14-(4-amino-5-(4-(naphthalen-2-yl)phenyl)-7H-pyrrolo[2,3-d]pyrimidin-7-yl)-2,10,15,16-tetrahydroxy-2,10-dioxidooctahydro-12H-5,8-methanofuro[3,2-l][1,3,6,9,11]pentaoxa[2,10]diphosphacyclotetradecin-7-yl)-1,9-dihydro-6H-purin-6-one]",EC50,[1]; [4],3.06 µM
same,EC50,[2]; [5],5.1 µM
same,EC50,[2]; [6],1.8 µM
same,CC50 at 16 h,[3],> 200 µM
"Nc1nc2c(ncn2[C@@H]2O[C@@H]3COP(=O)(O)O[C@H]4[C@@H](O)[C@H](n5cc(-c6ccc7ccccc7c6)c6c(N)ncnc65)O[C@@H]4COP(=O)(O)O[C@@H]2[C@@H]3O)c(=O)[nH]1 [Compound 1c, 2-amino-9-((5R,7R,8R,12aR,14R,15R,15aS,16R)-14-(4-amino-5-(naphthalen-2-yl)-7H-pyrrolo[2,3-d]pyrimidin-7-yl)-2,10,15,16-tetrahydroxy-2,10-dioxidooctahydro-12H-5,8-methanofuro[3,2-l][1,3,6,9,11]pentaoxa[2,10]diphosphacyclotetradecin-7-yl)-1,9-dihydro-6H-purin-6-one]",EC50,[1]; [4],7.63 µM
same,CC50 at 16 h,[3],> 200 µM
"Nc1nc2c(ncn2[C@@H]2O[C@@H]3COP(=O)(O)O[C@H]4[C@@H](O)[C@H](n5cc(-c6cccc7ccccc67)c6c(N)ncnc65)O[C@@H]4COP(=O)(O)O[C@@H]2[C@@H]3O)c(=O)[nH]1 [Compound 1d, 2-amino-9-((5R,7R,8R,12aR,14R,15R,15aS,16R)-14-(4-amino-5-(naphthalen-1-yl)-7H-pyrrolo[2,3-d]pyrimidin-7-yl)-2,10,15,16-tetrahydroxy-2,10-dioxidooctahydro-12H-5,8-methanofuro[3,2-l][1,3,6,9,11]pentaoxa[2,10]diphosphacyclotetradecin-7-yl)-1,9-dihydro-6H-purin-6-one]",EC50,[1]; [4],42.5 µM
same,CC50 at 16 h,[3],> 200 µM
"Nc1nc2c(ncn2[C@@H]2O[C@@H]3COP(=O)(O)O[C@H]4[C@@H](O)[C@H](n5cc(-c6ccc(COc7cccc8ccccc78)cc6)c6c(N)ncnc65)O[C@@H]4COP(=O)(O)O[C@@H]2[C@@H]3O)c(=O)[nH]1 [Compound 1h, 2-amino-9-((5R,7R,8R,12aR,14R,15R,15aS,16R)-14-(4-amino-5-(4-((naphthalen-1-yloxy)methyl)phenyl)-7H-pyrrolo[2,3-d]pyrimidin-7-yl)-2,10,15,16-tetrahydroxy-2,10-dioxidooctahydro-12H-5,8-methanofuro[3,2-l][1,3,6,9,11]pentaoxa[2,10]diphosphacyclotetradecin-7-yl)-1,9-dihydro-6H-purin-6-one]",EC50,[1]; [4],2.58 µM
same,EC50,[2]; [5],1.97 µM
same,EC50,[2]; [6],1.08 µM
same,CC50 at 16 h,[3],> 200 µM
"Nc1nc2c(ncn2[C@@H]2O[C@@H]3COP(=O)(O)O[C@H]4[C@@H](O)[C@H](n5cc(-c6cccs6)c6c(N)ncnc65)O[C@@H]4COP(=O)(O)O[C@@H]2[C@@H]3O)c(=O)[nH]1 [Compound 1j, 2-amino-9-((5R,7R,8R,12aR,14R,15R,15aS,16R)-14-(4-amino-5-(thiophen-2-yl)-7H-pyrrolo[2,3-d]pyrimidin-7-yl)-2,10,15,16-tetrahydroxy-2,10-dioxidooctahydro-12H-5,8-methanofuro[3,2-l][1,3,6,9,11]pentaoxa[2,10]diphosphacyclotetradecin-7-yl)-1,9-dihydro-6H-purin-6-one]",EC50,[2]; [5],2.88 µM
same,EC50,[2]; [6],2.6 µM
same,CC50 at 16 h,[3],> 200 µM
"Nc1nc2c(ncn2[C@@H]2O[C@@H]3COP(=O)(O)O[C@H]4[C@@H](O)[C@H](n5cc(-c6cc7ccccc7c7ccccc67)c6c(N)ncnc65)O[C@@H]4COP(=O)(O)O[C@@H]2[C@@H]3O)c(=O)[nH]1 [Compound 1e, 2-amino-9-((5R,7R,8R,12aR,14R,15R,15aS,16R)-14-(4-amino-5-(phenanthren-9-yl)-7H-pyrrolo[2,3-d]pyrimidin-7-yl)-2,10,15,16-tetrahydroxy-2,10-dioxidooctahydro-12H-5,8-methanofuro[3,2-l][1,3,6,9,11]pentaoxa[2,10]diphosphacyclotetradecin-7-yl)-1,9-dihydro-6H-purin-6-one]",EC50,[1]; [4],65.5 µM
same,CC50 at 16 h,[3],> 200 µM
"Cc1cn([C@@H]2O[C@@H]3COP(=O)(O)O[C@@H]4[C@H](O)[C@@H](COP(=O)(O)O[C@H]3[C@H]2O)O[C@H]4n2cnc3c(=O)[nH]c(N)nc32)c2ncnc(N)c12 [Compound 1a, 2-amino-9-((5R,7R,8R,12aR,14R,15R,15aS,16R)-14-(4-amino-5-methyl-7H-pyrrolo[2,3-d]pyrimidin-7-yl)-2,10,15,16-tetrahydroxy-2,10-dioxidooctahydro-12H-5,8-methanofuro[3,2-l][1,3,6,9,11]pentaoxa[2,10]diphosphacyclotetradecin-7-yl)-1,9-dihydro-6H-purin-6-one]",EC50,[2]; [5],30.6 µM
same,EC50,[2]; [6],7.8 µM
same,CC50 at 16 h,[3],> 200 µM
"Nc1nc2c(ncn2[C@@H]2O[C@@H]3COP(=O)(O)O[C@H]4[C@@H](O)[C@H](n5cc(-c6ccccc6)c6c(N)ncnc65)O[C@@H]4COP(=O)(O)O[C@@H]2[C@@H]3O)c(=O)[nH]1 [Compound 1b, 2-amino-9-((5R,7R,8R,12aR,14R,15R,15aS,16R)-14-(4-amino-5-phenyl-7H-pyrrolo[2,3-d]pyrimidin-7-yl)-2,10,15,16-tetrahydroxy-2,10-dioxidooctahydro-12H-5,8-methanofuro[3,2-l][1,3,6,9,11]pentaoxa[2,10]diphosphacyclotetradecin-7-yl)-1,9-dihydro-6H-purin-6-one]",EC50,[1]; [4],40.7 µM
same,CC50 at 16 h,[3],> 200 µM
"Nc1nc2c(ncn2[C@@H]2O[C@@H]3COP(=O)(O)O[C@H]4[C@@H](O)[C@H](n5cc(-c6cccc7c6oc6ccccc67)c6c(N)ncnc65)O[C@@H]4COP(=O)(O)O[C@@H]2[C@@H]3O)c(=O)[nH]1 [Compound 1m, 2-amino-9-((5R,7R,8R,12aR,14R,15R,15aS,16R)-14-(4-amino-5-(dibenzo[b,d]furan-4-yl)-7H-pyrrolo[2,3-d]pyrimidin-7-yl)-2,10,15,16-tetrahydroxy-2,10-dioxidooctahydro-12H-5,8-methanofuro[3,2-l][1,3,6,9,11]pentaoxa[2,10]diphosphacyclotetradecin-7-yl)-1,9-dihydro-6H-purin-6-one]",EC50,[1]; [4],19.1 µM
same,CC50 at 16 h,[3],> 200 µM
"Nc1nc2c(ncn2[C@@H]2O[C@@H]3COP(=O)(O)O[C@H]4[C@@H](O)[C@H](n5ccc6c(N)ncnc65)O[C@@H]4COP(=O)(O)O[C@@H]2[C@@H]3O)c(=O)[nH]1 [Compound 1n, 2-amino-9-((5R,7R,8R,12aR,14R,15R,15aS,16R)-14-(4-amino-7H-pyrrolo[2,3-d]pyrimidin-7-yl)-2,10,15,16-tetrahydroxy-2,10-dioxidooctahydro-12H-5,8-methanofuro[3,2-l][1,3,6,9,11]pentaoxa[2,10]diphosphacyclotetradecin-7-yl)-1,9-dihydro-6H-urin-6-one, reference compound]",EC50,[2]; [5],54.5 µM
same,EC50,[2]; [6],67.6 µM
same,CC50 at 16 h,[3],> 200 µM
"Nc1nc2c(ncn2[C@@H]2O[C@@H]3COP(=O)(O)O[C@H]4[C@@H](O)[C@H](n5cc(-c6ccco6)c6c(N)ncnc65)O[C@@H]4COP(=O)(O)O[C@@H]2[C@@H]3O)c(=O)[nH]1 [Compound 1i, 2-amino-9-((5R,7R,8R,12aR,14R,15R,15aS,16R)-14-(4-amino-5-(furan-2-yl)-7H-pyrrolo[2,3-d]pyrimidin-7-yl)-2,10,15,16-tetrahydroxy-2,10-dioxidooctahydro-12H-5,8-methanofuro[3,2-l][1,3,6,9,11]pentaoxa[2,10]diphosphacyclotetradecin-7-yl)-1,9-dihydro-6H-purin-6-one]",EC50,[2]; [5],2.8 µM
same,EC50,[2]; [6],2.24 µM
same,CC50 at 16 h,[3],> 200 µM
"C#Cc1cn([C@@H]2O[C@@H]3COP(=O)(O)O[C@@H]4[C@H](O)[C@@H](OCP(=O)(O)O[C@H]3[C@H]2O)O[C@H]4n2cnc3c(=O)[nH]c(N)nc32)c2ncnc(N)c12 [Compound 53, 2-amino-9-((5R,7R,8R,12aR,14R,15R,15aS,16S)-14-(4-amino-5-ethynyl-7H-pyrrolo[2,3-d]pyrimidin-7-yl)-2,10,15,16-tetrahydroxy-2,10-dioxidooctahydro-5,8-methanofuro[3,2-l][1,3,6,8,11]pentaoxa[2,10]diphosphacyclotetradecin-7-yl)-1,9-dihydro-6H-purin-6-one, reference compound]",EC50,[1],109 µM

# — patent US20240343754A1, “7-SUBSTITUTED 7-DEAZAADENINE-CONTAINING 2',3'-CYCLIC DINUCLEOTIDES” (USTAV ORGANICKE CHEMIE A BIOCHEMIE AV CR, V. V. I., priority 2021, published 2024)
